The values below come from ChEMBL document CHEMBL5465560, “Selectivity Literature for EUbOPEN Chemogenomic Library” (2024).

The target of assay [1] is Receptor-type tyrosine-protein kinase FLT3 (Homo sapiens) (UniProt P36888). Briefly: (§1) Selectivity interaction (KinomeScan (DiscoverX)) EUB0001079a FLT3. Particulars: at 1 µM.
In assay [2] the test system is T1, Receptor-type tyrosine-protein kinase FLT3 (Homo sapiens), P36888 [D835H].
T1 sequence (whole entry): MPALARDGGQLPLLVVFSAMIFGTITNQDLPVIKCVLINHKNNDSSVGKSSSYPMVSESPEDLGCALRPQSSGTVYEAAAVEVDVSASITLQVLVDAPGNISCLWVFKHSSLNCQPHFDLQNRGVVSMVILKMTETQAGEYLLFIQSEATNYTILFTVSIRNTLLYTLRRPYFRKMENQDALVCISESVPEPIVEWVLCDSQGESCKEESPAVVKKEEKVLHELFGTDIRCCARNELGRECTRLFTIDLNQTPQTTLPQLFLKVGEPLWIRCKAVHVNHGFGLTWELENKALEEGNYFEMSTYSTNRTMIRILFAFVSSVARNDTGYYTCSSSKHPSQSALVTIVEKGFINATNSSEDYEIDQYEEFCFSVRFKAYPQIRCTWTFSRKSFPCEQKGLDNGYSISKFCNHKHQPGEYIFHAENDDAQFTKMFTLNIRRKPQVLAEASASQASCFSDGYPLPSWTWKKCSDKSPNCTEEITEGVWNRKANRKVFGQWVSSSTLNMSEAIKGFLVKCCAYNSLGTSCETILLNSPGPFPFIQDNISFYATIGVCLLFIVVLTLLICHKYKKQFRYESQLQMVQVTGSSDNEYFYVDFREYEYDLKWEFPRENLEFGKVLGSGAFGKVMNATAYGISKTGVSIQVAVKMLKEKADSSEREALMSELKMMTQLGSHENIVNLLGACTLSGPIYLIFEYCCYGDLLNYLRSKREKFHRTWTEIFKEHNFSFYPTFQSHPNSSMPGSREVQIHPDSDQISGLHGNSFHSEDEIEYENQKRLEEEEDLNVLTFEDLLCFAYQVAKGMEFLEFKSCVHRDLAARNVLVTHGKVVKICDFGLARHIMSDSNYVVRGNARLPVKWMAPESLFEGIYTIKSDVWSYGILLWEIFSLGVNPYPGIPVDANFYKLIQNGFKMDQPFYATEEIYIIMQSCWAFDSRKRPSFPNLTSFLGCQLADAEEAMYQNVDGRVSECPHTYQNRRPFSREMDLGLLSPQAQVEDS
The assay is described as §1. Particulars: at 1 µM.

The test system of assay [3] is Receptor-type tyrosine-protein kinase FLT3 (Homo sapiens), P36888 [UNDEFINED MUTATION]. Described as §1. The settings on record: at 1 µM.
In assay [4] the target is Ribosomal protein S6 kinase alpha-5 (Homo sapiens) (UniProt O75582). The assay is described as follows: Selectivity interaction (KinomeScan (DiscoverX)) EUB0000092b RPS6KA5. Particulars: at 10 µM.
Ribosomal protein S6 kinase alpha-5 (Homo sapiens), sequence (O75582 whole entry, looked up): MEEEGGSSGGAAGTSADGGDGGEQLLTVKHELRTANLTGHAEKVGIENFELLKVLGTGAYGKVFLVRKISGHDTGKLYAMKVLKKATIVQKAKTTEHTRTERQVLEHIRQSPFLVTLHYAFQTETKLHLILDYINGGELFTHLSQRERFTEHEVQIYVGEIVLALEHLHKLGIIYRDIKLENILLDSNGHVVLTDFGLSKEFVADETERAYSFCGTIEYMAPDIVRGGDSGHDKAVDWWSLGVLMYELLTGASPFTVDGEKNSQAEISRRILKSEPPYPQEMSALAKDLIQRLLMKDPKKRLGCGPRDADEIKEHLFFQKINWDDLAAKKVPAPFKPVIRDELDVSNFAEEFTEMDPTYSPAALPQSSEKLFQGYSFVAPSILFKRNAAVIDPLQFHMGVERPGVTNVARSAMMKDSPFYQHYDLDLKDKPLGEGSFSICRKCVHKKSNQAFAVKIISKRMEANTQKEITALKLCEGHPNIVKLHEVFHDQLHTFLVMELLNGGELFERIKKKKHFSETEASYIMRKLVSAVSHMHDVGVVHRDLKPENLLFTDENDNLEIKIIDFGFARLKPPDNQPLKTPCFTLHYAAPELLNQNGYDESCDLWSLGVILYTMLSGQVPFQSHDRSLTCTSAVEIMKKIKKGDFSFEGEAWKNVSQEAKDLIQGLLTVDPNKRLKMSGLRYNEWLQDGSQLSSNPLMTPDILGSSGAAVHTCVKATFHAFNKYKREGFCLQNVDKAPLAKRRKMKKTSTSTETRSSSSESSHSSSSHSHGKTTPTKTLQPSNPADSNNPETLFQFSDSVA
Assay [5] has as its target T2, Serine/threonine-protein kinase Nek9 (Homo sapiens) (UniProt Q8TD19).
T2 sequence (whole entry): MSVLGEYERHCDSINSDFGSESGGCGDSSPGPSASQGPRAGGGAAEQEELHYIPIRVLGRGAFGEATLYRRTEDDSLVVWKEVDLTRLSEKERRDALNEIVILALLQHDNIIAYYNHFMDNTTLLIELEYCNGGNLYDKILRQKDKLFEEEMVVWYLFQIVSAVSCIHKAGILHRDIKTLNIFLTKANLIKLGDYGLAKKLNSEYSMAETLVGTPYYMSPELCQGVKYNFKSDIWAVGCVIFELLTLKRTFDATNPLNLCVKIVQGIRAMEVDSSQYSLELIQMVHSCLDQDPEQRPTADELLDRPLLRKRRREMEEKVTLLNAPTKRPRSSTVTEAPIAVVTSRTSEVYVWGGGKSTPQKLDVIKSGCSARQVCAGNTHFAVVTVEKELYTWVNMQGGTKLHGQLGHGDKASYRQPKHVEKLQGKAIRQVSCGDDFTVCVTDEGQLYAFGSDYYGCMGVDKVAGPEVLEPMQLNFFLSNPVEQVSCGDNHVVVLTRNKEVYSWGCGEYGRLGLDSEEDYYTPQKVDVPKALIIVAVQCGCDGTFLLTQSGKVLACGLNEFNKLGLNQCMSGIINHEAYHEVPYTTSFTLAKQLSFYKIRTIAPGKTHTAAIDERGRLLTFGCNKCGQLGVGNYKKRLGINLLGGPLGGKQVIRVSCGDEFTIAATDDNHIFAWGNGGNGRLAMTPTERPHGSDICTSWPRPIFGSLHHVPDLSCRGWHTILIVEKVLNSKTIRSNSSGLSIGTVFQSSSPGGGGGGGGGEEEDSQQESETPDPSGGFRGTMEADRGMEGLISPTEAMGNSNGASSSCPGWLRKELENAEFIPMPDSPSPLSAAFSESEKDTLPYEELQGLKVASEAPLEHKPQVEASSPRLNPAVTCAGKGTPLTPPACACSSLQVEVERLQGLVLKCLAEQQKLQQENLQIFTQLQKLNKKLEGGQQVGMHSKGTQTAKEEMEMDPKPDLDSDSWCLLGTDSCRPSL
Briefly: Selectivity interaction (ActivX KiNativ screen (kinase selectivity in THP-1 cell lysates)) EUB0000639a NEK9. It counts as subcellular. The settings on record: lysate, at 1 µM.

In a further assay the target is D(1A) dopamine receptor (Homo sapiens, UniProt P21728). The assay is described as follows: Selectivity interaction (GPCR panel (PDSP screen)) EUB0000311b DRD1. The settings on record: at 10 µM.
D(1A) dopamine receptor, sequence (P21728 whole entry): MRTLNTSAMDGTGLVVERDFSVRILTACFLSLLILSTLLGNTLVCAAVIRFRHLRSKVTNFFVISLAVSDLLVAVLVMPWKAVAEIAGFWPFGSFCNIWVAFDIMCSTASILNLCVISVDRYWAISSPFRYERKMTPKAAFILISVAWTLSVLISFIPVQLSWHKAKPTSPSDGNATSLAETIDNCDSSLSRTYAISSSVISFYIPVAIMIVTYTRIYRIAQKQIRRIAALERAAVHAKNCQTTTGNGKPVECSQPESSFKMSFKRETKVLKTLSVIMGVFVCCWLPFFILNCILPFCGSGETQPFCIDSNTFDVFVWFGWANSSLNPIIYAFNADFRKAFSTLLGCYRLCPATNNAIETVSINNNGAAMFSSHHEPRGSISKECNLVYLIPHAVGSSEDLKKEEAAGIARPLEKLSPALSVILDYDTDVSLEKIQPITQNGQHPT

Take `Nc1cnc(N2CCc3cc(S(=O)(=O)Nc4c(F)cc(Cl)cc4F)cc(N4CCCC4=O)c32)nc1` [TP-020n]: the % of control was determined as 81% in assay [1], 100% in assay [2] and 92% in assay [3].

In the case of `CCC(=O)N1CCN(c2ccc(-n3c(=O)ccc4cnc5ccc(-c6cnc7ccccc7c6)cc5c43)cc2C(F)(F)F)CC1`, the % of control in assay [4] was determined as 100%.

For `CC[C@@H]1[C@H](F)C(=O)N[C@@H]1COc1nccc2cc(C(N)=O)c(OC)cc12` [ZIMLOVISERTIB], in assay [5], the % of inhibition is -1.1%.

As for `CCc1ccccc1C(=O)Nc1n[nH]c2c(C)c(F)c(C3C(C#N)=C(C)N(C)C(C)=C3C#N)cc12` [BAY-3827], at D(1A) dopamine receptor, the % of inhibition was 67.4%.
